The record followed here is ChEMBL document CHEMBL1155059, “Synthesis and biological evaluation of trisubstituted imidazole derivatives as inhibitors of p38alpha mitogen-activated protein kinase” (Bioorg Med Chem Lett, 2008).

Assay [1] has as its target Mitogen-activated protein kinase 14 (Homo sapiens, UniProt Q16539). Kind of assay: Inhibition of human recombinant p38alpha MAPK expressed in Escherichia coli by radioisotopic protein kinase assay.
In another assay the target is T1, TGF-beta receptor type-1 (Homo sapiens, UniProt P36897).
T1 sequence (P36897 whole entry): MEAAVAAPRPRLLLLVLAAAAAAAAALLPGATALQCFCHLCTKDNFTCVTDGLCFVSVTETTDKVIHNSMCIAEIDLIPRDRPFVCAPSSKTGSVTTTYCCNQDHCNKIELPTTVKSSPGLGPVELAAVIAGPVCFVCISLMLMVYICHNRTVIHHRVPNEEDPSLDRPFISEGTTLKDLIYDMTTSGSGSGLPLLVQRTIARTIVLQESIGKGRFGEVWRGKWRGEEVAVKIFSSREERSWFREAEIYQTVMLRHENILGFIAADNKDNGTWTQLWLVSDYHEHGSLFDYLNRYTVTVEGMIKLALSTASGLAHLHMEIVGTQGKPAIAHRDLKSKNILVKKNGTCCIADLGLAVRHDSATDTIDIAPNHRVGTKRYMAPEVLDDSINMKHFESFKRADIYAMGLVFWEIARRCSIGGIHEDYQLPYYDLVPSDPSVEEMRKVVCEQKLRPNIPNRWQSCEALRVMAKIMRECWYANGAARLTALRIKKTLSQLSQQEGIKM
The assay is described as follows: Inhibition of GST fused human recombinant ALK5 expressed in Sf9 cells by radioisotopic protein kinase assay.

pIC50: −log10 of the molar value.

Sequence of Mitogen-activated protein kinase 14 (Q16539 whole entry): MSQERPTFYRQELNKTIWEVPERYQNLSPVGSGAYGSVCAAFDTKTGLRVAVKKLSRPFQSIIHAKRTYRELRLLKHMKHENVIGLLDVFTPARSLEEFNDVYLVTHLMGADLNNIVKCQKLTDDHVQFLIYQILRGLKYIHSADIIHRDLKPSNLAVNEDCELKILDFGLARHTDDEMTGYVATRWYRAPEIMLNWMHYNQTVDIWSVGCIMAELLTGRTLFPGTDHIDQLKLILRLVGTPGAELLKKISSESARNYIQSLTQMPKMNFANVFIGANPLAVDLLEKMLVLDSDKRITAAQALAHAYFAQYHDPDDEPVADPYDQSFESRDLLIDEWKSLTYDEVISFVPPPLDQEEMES

Usually pIC50 stands for −log10 of the IC50, conventionally taken in molar units. As for `COc1nccc(-c2[nH]c(Cc3cccc(C(N)=O)c3)nc2-c2ccc(F)cc2)n1`, the pIC50 in assay [1] is 7.31; at TGF-beta receptor type-1, < 6.00.
The matching figures for `COc1nccc(-c2[nH]c(Cc3cccc(C#N)c3)nc2-c2ccc(F)cc2)n1`: 7.20 and < 6.00.
In the same order, the values of `COc1nccc(-c2c(-c3ccc(F)cc3)ncn2Cc2ccc(C(N)=O)cc2)n1` are 6.04 and < 6.00.
In the same order, the values of `C[C@H](Nc1nccc(-c2ncn(Cc3cccc(C(N)=O)c3)c2-c2ccc(F)cc2)n1)c1ccccc1` are < 6.00 and < 6.00.
Turning to `COc1ccc(CNc2nccc(-c3[nH]c(Cc4cccc(C#N)c4)nc3-c3ccc(F)cc3)n2)cc1`, the pIC50 in assay [1] was 6.83; on TGF-beta receptor type-1, < 6.00.
The matching figures for `COc1nccc(-c2c(-c3ccc(F)cc3)ncn2Cc2cccc(C(N)=O)c2)n1`: 6.65 and < 6.00.
The matching figures for `C[C@H](Nc1nccc(-c2c(-c3ccc(F)cc3)ncn2Cc2ccc(C(N)=O)cc2)n1)c1ccccc1`: 7.25 and < 6.00.
In the same order, the values of `COc1nccc(-c2c(-c3ccc(F)cc3)ncn2Cc2cccc(C#N)c2)n1` are 6.59 and < 6.00.
Consider `C[C@H](Nc1nccc(-c2c(-c3ccc(F)cc3)ncn2Cc2ccc(C#N)cc2)n1)c1ccccc1`, for which the pIC50 is 7.06 in assay [1] and < 6.00 at TGF-beta receptor type-1.
Regarding `NC(=O)c1cccc(Cn2cnc(-c3ccc(F)cc3)c2-c2ccnc(N)n2)c1`, the pIC50 in assay [1] is 6.46; at TGF-beta receptor type-1, < 6.00.
The matching figures for `C[C@H](Nc1nccc(-c2c(-c3ccc(F)cc3)ncn2Cc2cccc(C(N)=O)c2)n1)c1ccccc1`: 7.26 and < 6.00.
The matching figures for `COc1nccc(-c2c(-c3ccc(F)cc3)ncn2Cc2ccc(C#N)cc2)n1`: 6.07 and < 6.00.
In the same order, the values of `C[C@H](Nc1nccc(-c2[nH]c(Cc3cccc(C#N)c3)nc2-c2ccc(F)cc2)n1)c1ccccc1` are 7.02 and < 6.00.
`COc1nccc(-c2ncn(Cc3cccc(C(N)=O)c3)c2-c2ccc(F)cc2)n1`: the negative-log IC50 (pIC50) (in assay [1]; at TGF-beta receptor type-1) was < 6.00 each time.
`C[C@H](Nc1nccc(-c2[nH]c(Cc3cccc(C(N)=O)c3)nc2-c2ccc(F)cc2)n1)c1ccccc1`: the negative-log IC50 (pIC50) in assay [1] is 7.11; at TGF-beta receptor type-1, < 6.00.
As for `COc1nccc(-c2ncn(Cc3ccc(C(N)=O)cc3)c2-c2ccc(F)cc2)n1`, the pIC50 (in assay [1]; at TGF-beta receptor type-1) was < 6.00 in each case.
With `C[C@H](Nc1nccc(-c2ncn(Cc3ccc(C(N)=O)cc3)c2-c2ccc(F)cc2)n1)c1ccccc1`, the pIC50 (in assay [1]; at TGF-beta receptor type-1) was < 6.00 each time.
Consider `COc1ccc(CNc2nccc(-c3c(-c4ccc(F)cc4)ncn3Cc3cccc(C#N)c3)n2)cc1`, for which the pIC50 in assay [1] is 6.72; on TGF-beta receptor type-1 it was < 6.00.
Turning to `C[C@H](Nc1nccc(-c2c(-c3ccc(F)cc3)ncn2Cc2cccc(C#N)c2)n1)c1ccccc1`, the pIC50 in assay [1] was 6.85; at TGF-beta receptor type-1, < 6.00.
In the same order, the values of `N#Cc1cccc(Cn2cnc(-c3ccc(F)cc3)c2-c2ccnc(NC3CC3)n2)c1` are 7.20 and < 6.00.
In the case of `Cc1cccc(-c2[nH]c(Cc3cccc(C(N)=O)c3)nc2-c2ccc3nccnc3c2)n1`, the pIC50 in assay [1] was 5.37.
In the case of `COc1ccc(CNc2nccc(-c3ncn(Cc4cccc(C#N)c4)c3-c3ccc(F)cc3)n2)cc1`, the pIC50 (in assay [1]; on TGF-beta receptor type-1) was < 6.00 throughout.
For the compound `N#Cc1cccc(Cn2cnc(-c3ccnc(N)n3)c2-c2ccc(F)cc2)c1`, the pIC50 (in assay [1]; on TGF-beta receptor type-1) was < 6.00 throughout.
As for `NC(=O)c1cccc(Cn2cnc(-c3ccnc(N)n3)c2-c2ccc(F)cc2)c1`, the pIC50 (in assay [1]; at TGF-beta receptor type-1) was < 6.00 in each case.
For the compound `C[C@H](Nc1nccc(-c2ncn(Cc3cccc(C#N)c3)c2-c2ccc(F)cc2)n1)c1ccccc1`, the pIC50 (in assay [1]; at TGF-beta receptor type-1) was < 6.00 throughout.
With `C[C@H](Nc1nccc(-c2ncn(Cc3ccc(C#N)cc3)c2-c2ccc(F)cc2)n1)c1ccccc1`, the pIC50 (in assay [1]; at TGF-beta receptor type-1) was < 6.00 in each case.
On to `COc1nccc(-c2ncn(Cc3ccc(C#N)cc3)c2-c2ccc(F)cc2)n1`, for which the pIC50 (in assay [1]; at TGF-beta receptor type-1) was < 6.00 throughout.
Regarding `N#Cc1cccc(Cn2cnc(-c3ccnc(NC4CC4)n3)c2-c2ccc(F)cc2)c1`, the pIC50 (in assay [1]; at TGF-beta receptor type-1) was < 6.00 in each case.
Consider `NC(=O)N(c1nc(-c2ccc(F)cc2)cs1)c1c(Cl)cccc1Cl`, for which the negative logarithm of the IC50 (pIC50) in assay [1] was 6.09.
On to `N#Cc1cccc(Cc2nc(-c3ccc(F)cc3)c(-c3ccnc(N)n3)[nH]2)c1`, for which the pIC50 in assay [1] was 7.55; on TGF-beta receptor type-1, < 6.00.
The matching figures for `NC(=O)c1cccc(Cc2nc(-c3ccc(F)cc3)c(-c3ccnc(NC4CC4)n3)[nH]2)c1`: 7.51 and < 6.00.
In the same order, the values of `N#Cc1cccc(Cc2nc(-c3ccc(F)cc3)c(-c3ccnc(NC4CC4)n3)[nH]2)c1` are 7.26 and < 6.00.
In the same order, the values of `NC(=O)c1cccc(Cn2cnc(-c3ccnc(NC4CC4)n3)c2-c2ccc(F)cc2)c1` are < 6.00 and < 6.00.
`N#Cc1cccc(Cn2cnc(-c3ccc(F)cc3)c2-c2ccnc(N)n2)c1`: the pIC50 in assay [1] was 7.00; on TGF-beta receptor type-1, < 6.00.
In the same order, the values of `NC(=O)c1cccc(Cn2cnc(-c3ccc(F)cc3)c2-c2ccnc(NC3CC3)n2)c1` are 7.56 and < 6.00.
The matching figures for `COc1nccc(-c2ncn(Cc3cccc(C#N)c3)c2-c2ccc(F)cc2)n1`: < 6.00 and < 6.00.
